The values that follow come from US4542123A (Massachusetts Institute of Technology, priority 1982, dated 1985).

A short description of data set [1]: Brain and serum tyrosine in fasted rats given tyrosine alone or tyrosine and glucose (Example III, Table 2). The conditions noted are these: tyrosine 100 mg/kg alone; 90 min. It is filed as in vivo, Sprague-Dawley rats.
Data set [2] can be described thus: in vivo. Conditions: rat, po, 100 mg/kg.
The nature of data set [3]: Brain and plasma tyrosine ratios in fasted rats, tyrosine and glucose given concurrently (Example II, second set). Conditions: rat, brain, po, 100 mg/kg.

The structures appear in SMILES notation.

With `N[C@@H](Cc1ccc(O)cc1)C(=O)O` [Tyrosine, tyrosine], in data set [1], the “Brain Tyrosine” value was 23.0 ± 2.2 µg/mL, the “Brain/Serum (tyrosine)” value is on record as 1.02 ± 0.1 and the “Serum Tyrosine/Serum LNAA” value is given as “.304”. The same compound returned a Kp at 1 h in data set [2] (brain) of 0.78. Besides, the concentration at 1 h in data set [2] (serum) was determined as 20900 ng/mL. Besides, in data set [3], the Kp at […] turned out to be 0.77.
